Laboratory results reported in US20250042922A1, “KRAS MODULATING COMPOUNDS” (priority 2023, published 2025).

Columns and labels:
[1] = molecular target: GDP-loaded wild-type KRAS (WT) (Homo sapiens, UniProt P01116); test: KRAS (GDP) biochemical TR-FRET probe displacement assay, WT; type: binding; conditions: 2 hours
Description: (§1) Compounds are tested for binding to GDP-loaded wild-type KRAS (WT), KRAS-G12C, KRAS-G12D, and KRAS-G12V in a 384-well assay format using a TR-FRET probe displacement assay in buffer consisting of 50 mM Hepes (pH 7.4), 150 mM NaCl, 5 mM MgCl2 and 0.005% Tween-20. […] Compounds are serially diluted (1:3) in DMSO. The LabCyte ECHO Acoustic dispenser was used to pre-spot the assay plates (384-well Non-Binding Surface plates, Corning, Catalog #3824) with 50 nL of compound. 5 μL of 2X enzyme concentration is added to the pre-spotted plates and incubated for 30 minutes before adding 5 μL of 2X concentration of Eu-streptavidin and Cy-5 labelled probe (10 μL final reaction volume). The plates are incubated at room temperature for 2 hours before measuring TR-FRET ratio (665 nm/615 nm) on the Envision multimode plate reader. The ratios are normalized to a positive (saturating concentration of known inhibitor) and negative (DMSO) control and plotted against the log of compound concentration.

GDP-loaded KRAS-G12C = GDP-loaded KRAS-G12C (Homo sapiens, UniProt P01116, G12C); test: KRAS (GDP) biochemical TR-FRET probe displacement assay, G12C; type: binding; conditions: 2 hours
Description: as §1

GDP-loaded KRAS-G12V = GDP-loaded KRAS-G12V (Homo sapiens, UniProt P01116, G12V); test: KRAS (GDP) biochemical TR-FRET probe displacement assay, G12V; type: binding; conditions: 2 hours
Description: as §1

GDP-loaded KRAS-G12D = GDP-loaded KRAS-G12D (Homo sapiens, UniProt P01116, G12D); test: KRAS (GDP) biochemical TR-FRET probe displacement assay, G12D; type: binding; conditions: 2 hours
Description: as §1

[2] = system: cellular pERK in Kuramochi (WT KRAS) cells; test: Cell based pERK assay, Kuramochi; conditions: Kuramochi (WT KRAS), 2 hours incubation, HTRF phospho-ERK1/2; read-out: Kuramochi pERK EC50
Description: (§2) Compounds were tested in a 384-well assay format for their ability to inhibit cellular pERK in Kuramochi (WT KRAS), MIA-PaCa-2 (KRAS-G12C), ASPC-1 (KRAS G12D), and NCI-H441 (KRAS-G12V) cell-lines. Compounds were serially diluted (1:3) in DMSO. On day −1, 80 μL of cells were plated per well in the 384 well tissue-culture plates (Greiner: Cat #781080) to seed 5000 cells per wells of AsPC-1 or 7500 cells of MIA-PaCa-2, NCI-H441, and Kuramochi cell lines in RPMI (Corning: Cat #10-040-CM) with 10% fetal bovine serum (FBS) (HyClone: Cat #SH30071-03) and 1× penicillin-streptomycin-glutamate (PSG) (Corning: Cat #30-009-CI) for […] and Kuramochi cell lines and DMEM (Corning: Cat #15-018-CM) with 10% FBS and 1×PSG for MIA-PaCa-2 cell line. The plates were then incubated overnight at 37° C. and 5% CO2. On day 0, 400 nL of compound/well was added into the cell plates and mixed 5 times by pipetting using a Beckmann Biomek FX. The cell plates were then incubated for 2 hours at 37° C. and 5% CO2. HTRF Advanced Phospho-ERK1/2 (THR202/TYR204) Detection Kits (PerkinElmer: Cat #64AERPEG) were used to prepare the lysis and detection solution according to manufacturer protocol. Following the 2 hour incubation, 70 μL of medium was aspirated from the plates and 10 uL of lysis and detection solution was added to the plates using a Biotek EL406 washer and dispenser. Plates were sealed and stored overnight at room temperature. HTRF ratio (665 nm/615 nm) was read by Envision multimode reader (PerkinElmer) the next day. The TR-FRET ratios were normalized to a positive (saturating concentration of known inhibitor) and negative (DMSO) control and plotted against the log of compound concentration.

[3] = system: cellular pERK in MIA-PaCa-2 (KRAS-G12C) cells; test: Cell based pERK assay, MIA-PaCa-2; conditions: Homo sapiens; MIA-PaCa-2 (KRAS-G12C), 2 hours incubation, HTRF phospho-ERK1/2; read-out: MIAPaCa2 pERK EC50
Description: as §2

[4] = system: cellular pERK in ASPC-1 (KRAS G12D) cells; test: Cell based pERK assay, ASPC-1; conditions: Homo sapiens, ASPC1; ASPC-1 (KRAS G12D), 2 hours incubation, HTRF phospho-ERK1/2; read-out: AsPC1 pERK EC50
Description: as §2

[5] = system: cellular pERK in NCI-H441 (KRAS-G12V) cells; test: Cell based pERK assay, NCI-H441; conditions: Homo sapiens; NCI-H441 (KRAS-G12V), 2 hours incubation, HTRF phospho-ERK1/2; read-out: H441 PERK EC50
Description: as §2

GDP-loaded KRAS-G12D, sequence (P01116 1-188 isoform P01116-2 G12D): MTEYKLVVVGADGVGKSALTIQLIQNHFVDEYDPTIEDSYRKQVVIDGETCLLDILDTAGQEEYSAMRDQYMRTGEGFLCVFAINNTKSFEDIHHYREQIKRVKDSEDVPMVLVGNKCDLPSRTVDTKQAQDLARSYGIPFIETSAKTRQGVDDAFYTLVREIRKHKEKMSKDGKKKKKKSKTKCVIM
GDP-loaded KRAS-G12V, sequence (P01116 1-188 isoform P01116-2 G12V): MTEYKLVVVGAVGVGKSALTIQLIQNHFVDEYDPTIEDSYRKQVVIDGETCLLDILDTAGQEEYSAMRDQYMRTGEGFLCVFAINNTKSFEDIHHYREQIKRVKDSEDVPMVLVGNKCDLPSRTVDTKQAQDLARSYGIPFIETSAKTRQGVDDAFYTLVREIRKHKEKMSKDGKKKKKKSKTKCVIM
GDP-loaded wild-type KRAS (WT), sequence (P01116 1-188 isoform P01116-2): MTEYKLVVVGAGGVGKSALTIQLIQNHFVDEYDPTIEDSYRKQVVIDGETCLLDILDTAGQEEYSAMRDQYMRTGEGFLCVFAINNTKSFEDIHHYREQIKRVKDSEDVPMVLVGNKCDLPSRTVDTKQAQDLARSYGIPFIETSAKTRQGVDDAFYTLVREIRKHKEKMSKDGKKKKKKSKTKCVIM
GDP-loaded KRAS-G12C, sequence (P01116 1-188 isoform P01116-2 G12C): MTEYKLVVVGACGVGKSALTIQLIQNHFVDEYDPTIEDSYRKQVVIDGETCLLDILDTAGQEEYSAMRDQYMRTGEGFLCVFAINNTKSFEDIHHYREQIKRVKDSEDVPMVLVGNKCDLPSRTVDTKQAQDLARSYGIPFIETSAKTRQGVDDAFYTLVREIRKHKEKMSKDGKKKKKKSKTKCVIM

Row | SMILES | IC50 [1] | IC50 (GDP-loaded KRAS-G12C) | IC50 (GDP-loaded KRAS-G12V) | IC50 (GDP-loaded KRAS-G12D) | EC50 [2] | EC50 [3] | EC50 [4] | EC50 [5]
1 | N#Cc1c(N)sc2c(F)ccc(-c3nc4c5c(nc(OCC67CCCN6CCC7)nc5c3F)N3C[C@@]5(F)CC[C@](F)(N5)[C@H]3CCC4)c12 [Example 4-7, 2-amino-7-fluoro-4-((6aR,7R,10S)-1,7,10-trifluoro-13-((tetrahydro-1H-pyrrolizin-7a(5H)-yl)methoxy)-5,6,6a,7,8,9,10,11-octahydro-4H-3,11a,12,14,15-pentaaza-7,10-methanocyclohepta[4,5]cycloocta[1,2,3-de]naphthalen-2-yl)benzo[b]thiophene-3-carbonitrile] | 10.1 nM | 28.5 nM | 44.1 nM | 86.8 nM | 15.6 nM | 59.8 nM | 840 nM | –
2 | C#Cc1c(F)ccc2cc(N)cc(-c3nc4c5c(nc(OC[C@@H]6CCCN6C)nc5c3F)N3C[C@@]5(F)CC[C@](F)(N5)[C@H]3CCC4)c12 [Example 4-8, 5-ethynyl-6-fluoro-4-((6aR,7R,10S)-1,7,10-trifluoro-13-(((S)-1-methylpyrrolidin-2-yl)methoxy)-5,6,6a,7,8,9,10,11-octahydro-4H-3,11a,12,14,15-pentaaza-7,10-methanocyclohepta[4,5]cycloocta[1,2,3-de]naphthalen-2-yl)naphthalen-2-amine] | 6.19 nM | 13.2 nM | 34.7 nM | 57.8 nM | 5.11 nM | 6.73 nM | 169 nM | –
3 | C[C@H]1Cc2nc(-c3cc(N)cc(Cl)c3C(F)(F)F)c(F)c3nc(OCC45CCCN4CCC5)nc(c23)N2C[C@@]3(F)CC[C@](F)(N3)[C@H]12 [Example 4-17, 3-chloro-5-((8S,8aS,9R,12S)-4,9,12-trifluoro-8-methyl-2-((tetrahydro-1H-pyrrolizin-7a(5H)-yl)methoxy)-7,8,8a,9,10,11,12,13-octahydro-1,3,6,13a,14-pentaaza-9,12-methanonaphtho[1,8-ab]heptalen-5-yl)-4-(trifluoromethyl)aniline] | 0.161 nM | 0.479 nM | 0.865 nM | 2.79 nM | 4.32 nM | 1.72 nM | 38 nM | –
4 | CCC1CCCc2cc(N)cc(-c3nc4c5c(nc(OCC67CCCN6CCC7)nc5c3F)N3C[C@@]5(F)CC[C@](F)(N5)[C@H]3CCC4)c21 (stereo partly drawn) [Example 4-24, 5-ethyl-4-((6aR,7R,10S)-1,7,10-trifluoro-13-((tetrahydro-1H-pyrrolizin-7a(5H)-yl)methoxy)-5,6,6a,7,8,9,10,11-octahydro-4H-3,11a,12,14,15-pentaaza-7,10-methanocyclohepta[4,5]cycloocta[1,2,3-de]naphthalen-2-yl)-5,6,7,8-tetrahydronaphthalen-2-amine] | > 100 nM | > 100 nM | > 100 nM | > 100 nM | 312 nM | 560 nM | > 1000 nM | –
5 | C#Cc1c(F)ccc2cc(N)cc(-c3nc4c5c(nc(OC[C@@]67CCCN6[C@H](COC(C(F)(F)F)(C(F)(F)F)C(F)(F)F)CC7)nc5c3F)N3C[C@@]5(F)CC[C@](F)(N5)[C@H]3CCC4)c12 [Example 4-28, 5-ethynyl-6-fluoro-4-((6aR,7R,10S)-1,7,10-trifluoro-13-(((3S,7aS)-3-(((1,1,1,3,3,3-hexafluoro-2-(trifluoromethyl)propan-2-yl)oxy)methyl)tetrahydro-1H-pyrrolizin-7a(5H)-yl)methoxy)-5,6,6a,7,8,9,10,11-octahydro-4H-3,11a,12,14,15-pentaaza-7,10-methanocyclohepta[4,5]cycloocta[1,2,3-de]naphthalen-2-yl)naphthalen-2-amine] | 4.98 nM | 7.3 nM | 44.8 nM | 59.4 nM | 7.5 nM | 5.6 nM | 117 nM | –
6 | C#Cc1c(F)ccc2cccc(-c3nc4c5c(nc(OCC67CCCN6CCC7)nc5c3F)N3C[C@@]5(F)CC[C@](F)(N5)[C@H]3CCC4)c12 [Example 4-29, (6aR,7R,10S)-2-(8-ethynyl-7-fluoronaphthalen-1-yl)-1,7,10-trifluoro-13-((tetrahydro-1H-pyrrolizin-7a(5H)-yl)methoxy)-5,6,6a,7,8,9,10,11-octahydro-4H-3,11a,12,14,15-pentaaza-7,10-methanocyclohepta[4,5]cycloocta[1,2,3-de]naphthalene] | 5.99 nM | 8.68 nM | 24.8 nM | 38.1 nM | 6.37 nM | 12.8 nM | 305 nM | –
7 | C#Cc1c(F)ccc2cc(N)cc(-c3nc4c5c(nc(OC[C@]6(C)CN(C)CC/C6=C\F)nc5c3F)N3C[C@@]5(F)CC[C@](F)(N5)[C@@H]3[C@@H](C)C4)c12 [Example 4-39, 5-ethynyl-6-fluoro-4-((5S,5aS,6R,9S)-1,6,9-trifluoro-12-(((S,E)-4-(fluoromethylene)-1,3-dimethylpiperidin-3-yl)methoxy)-5-methyl-4,5,5a,6,7,8,9,10-octahydro-3,10a,11,13,14-pentaaza-6,9methanonaphtho[1,8-ab]heptalen-2-yl)naphthalen-2-amine] | – | 0.383 nM | 0.583 nM | 1.12 nM | 3.76 nM | 0.253 nM | 6.04 nM | 0.689 nM
8 | C#Cc1c(F)ccc2cc(N)cc(-c3nc4c5c(nc(OC[C@@]67CCCN6CC(=C)C7)nc5c3F)N3C[C@@]5(F)CC[C@](F)(N5)[C@@H]3[C@@H](C)C4)c12 [Example 4-40, 5-ethynyl-6-fluoro-4-((5S,5aS,6R,9S)-1,6,9-trifluoro-5-methyl-12-(((S)-2-methylenetetrahydro-1H-pyrrolizin-7a(5H)-yl)methoxy)-4,5,5a,6,7,8,9,10-octahydro-3,10a,11,13,14-pentaaza-6,9-methanonaphtho[1,8-ab]heptalen-2-yl)naphthalen-2-amine] | – | – | – | – | 1.65 nM | 0.067 nM | 0.71 nM | 0.38 nM
9 | Nc1cc(-c2nc3c4c(nc(OCC56CCCN5CCC6)nc4c2F)N2C[C@@]4(F)CC[C@](F)(N4)[C@H]2CCC3)c2c(F)c(F)ccc2c1 [Example 5-4, 5,6-difluoro-4-[(4S,7R,8R)-4,7,15-trifluoro-18-(1,2,3,5,6,7-hexahydropyrrolizin-8-ylmethoxy)-2,13,17,19,21-pentazapentacyclo[10.7.1.14,7.02,8.016,20]henicosa-1(19),12(20),13,15,17-pentaen-14-yl]naphthalen-2-amine] | – | – | – | – | 5.01 nM | 28.7 nM | 416 nM | 104 nM
10 | CCc1c(F)ccc2cc(O)cc(-c3nc4c5c(nc(OCC67CCCN6CCC7)nc5c3F)N3C[C@@]5(F)CC[C@](F)(N5)[C@H]3CCC4)c12 [Example 6-1, 5-ethyl-6-fluoro-4-((6aR,7R,10S)-1,7,10-trifluoro-13-((tetrahydro-1H-pyrrolizin-7a(5H)-yl)methoxy)-5,6,6a,7,8,9,10,11-octahydro-4H-3,11a,12,14,15-pentaaza-7,10-methanocyclohepta[4,5]cycloocta[1,2,3-de]naphthalen-2-yl)naphthalen-2-ol] | – | – | – | – | 3.55 nM | 1.52 nM | 31.8 nM | 19.4 nM
